The assay has as its target KRAS G12C and cRAF (Ras-binding domain) interaction (Homo sapiens (Human), UniProt P01116, C118S/C51S/C80L/G12C). Kind of assay: Inhibition of KRAS G12C and cRAF binding (AlphaScreen). The essentials: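 Compounds (DMSO) preincubated 19-20 h at room temperature, then RBD with streptavidin donor and glutathione acceptor beads added in 25 mM Hepes pH 7.4, 150 mM NaCl, 5 mM MgCl2, 0.01% Triton X-100, 2% DMSO for 60-90 min. Emission 570 nm (excitation 680 nm); IC50 by 4-parameter fit. Counter-screen used biotin-AviTag-GST instead of RBD.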
(In general: Alpha assays give light when donor and acceptor beads are brought close together.)

[1] abbreviates: GMPPNP-loaded KRAS G12C, 19-20 hours incubation with compound, read-out: IC50 (Inhibition of KRAS G12C and cRAF Binding).
Where [2] appears, read: additional exemplary compounds, KRAS G12C and cRAF binding, read-out: RAF1 RBD IC50.

Structures are written as SMILES. Like-named read-outs stand apart in the source and are kept apart here. Bounds are passed on as bounds.

Sequence of KRAS G12C and cRAF (Ras-binding domain) interaction (P01116 other isoform, or with tags, fused parts or gaps G12C/C51S/C80L/C118S): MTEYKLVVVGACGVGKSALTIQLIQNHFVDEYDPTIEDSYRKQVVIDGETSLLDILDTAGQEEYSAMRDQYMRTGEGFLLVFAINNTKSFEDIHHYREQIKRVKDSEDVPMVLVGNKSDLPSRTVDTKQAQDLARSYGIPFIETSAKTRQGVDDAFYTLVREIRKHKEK

For orientation: IC50 means the concentration at which inhibition is half-maximal. Take `Cc1nccc(/C=C/C(=O)N2CC[C@@H](N(C)c3nc(OC[C@@]45CCCN4C[C@H](F)C5)nc4c(F)c(-c5cccc6ccc(F)c(Cl)c56)ncc34)C2)n1` [Example 270, (E)-1-((R)-3-((7-(8-chloro-7-fluoronaphthalen-1-yl)-8-fluoro-2-(((2R,7aS)-2-fluorotetrahydro-1H-pyrrolizin-7a(5H)-yl)methoxy)pyrido[4,3-d]pyrimidin-4-yl)(methyl)amino)pyrrolidin-1-yl)-3-(2-methylpyrimidin-4-yl)prop-2-en-1-one]: the IC50 under setting [1] is 10 to 100 nM.

As for `C#Cc1c(F)ccc2cccc(-c3ncc4c(N(C)[C@@H]5CCN(C(=O)/C=C/c6nc(C)nc(C)c6F)C5)nc(OC[C@@]56CCCN5C[C@H](F)C6)nc4c3F)c12` [Example 302, (E)-1-((R)-3-((7-(8-ethynyl-7-fluoronaphthalen-1-yl)-8-fluoro-2-(((2R,7aS)-2-fluorotetrahydro-1H-pyrrolizin-7a(5H)-yl)methoxy)pyrido[4,3-d]pyrimidin-4-yl)(methyl)amino)pyrrolidin-1-yl)-3-(5-fluoro-2,6-dimethylpyrimidin-4-yl)prop-2-en-1-one], under setting [1], the IC50 was 10 to 100 nM.

On to `C=CC(=O)N1CC[C@@H](N(C)c2nc(OCC34CCCN3CCC4)nc3c(F)c(-c4cccc5ccc(F)c(F)c45)ncc23)C1` [Example 265, (R)-1-(3-((7-(7,8-difluoronaphthalen-1-yl)-8-fluoro-2-((tetrahydro-1H-pyrrolizin-7a(5H)-yl)methoxy)pyrido[4,3-d]pyrimidin-4-yl)(methyl)amino)pyrrolidin-1-yl)prop-2-en-1-one], for which the IC50 under setting [1] fell in the range of 10 to 100 nM.

On to `CN(c1nc(OC[C@@]23CCCN2C[C@H](F)C3)nc2c(F)c(-c3cccc4cccc(Cl)c34)ncc12)[C@@H]1CCN(C(=O)/C=C/CN2CCOCC2)C1` [Example 90, (E)-1-((R)-3-((7-(8-chloronaphthalen-1-yl)-8-fluoro-2-(((2R,7aS)-2-fluorohexahydro-1H-pyrrolizin-7a-yl)methoxy)pyrido[4,3-d]pyrimidin-4-yl)(methyl)amino)pyrrolidin-1-yl)-4-morpholinobut-2-en-1-one], for which the IC50 under setting [1] was in the range of 10 to 100 nM.

With `CCN1CC[C@@H]1/C=C/C(=O)N1CC[C@@H](N(C)c2nc(OC[C@@]34CCCN3C[C@H](F)C4)nc3c(F)c(-c4cccc5cccc(Cl)c45)ncc23)C1` [Example 223, (E)-1-((R)-3-((7-(8-chloronaphthalen-1-yl)-8-fluoro-2-(((2R,7aS)-2-fluorotetrahydro-1H-pyrrolizin-7a(5H)-yl)methoxy)pyrido[4,3-d]pyrimidin-4-yl)(methyl)amino)pyrrolidin-1-yl)-3-((R)-1-ethylazetidin-2-yl)prop-2-en-1-one], the IC50 under setting [1] lay within 10 to 100 nM.

For the molecule `C=CC(=O)N1CC[C@@H](N(C)c2nc(OCC34CCCN3CCC4)nc3c(F)c(-c4cccc5ccc(F)c(CC)c45)ncc23)C1` [Example 253, (R)-1-(3-((7-(8-ethyl-7-fluoronaphthalen-1-yl)-8-fluoro-2-((tetrahydro-1H-pyrrolizin-7a(5H)-yl)methoxy)pyrido[4,3-d]pyrimidin-4-yl)(methyl)amino)pyrrolidin-1-yl)prop-2-en-1-one], under setting [1], the concentration for half-maximal inhibition (IC50) fell in the range of 100 to 500 nM.

As to `C=CC(=O)N1C[C@H](N(C)c2nc(OCC34CCCN3CCC4)nc3c2CCN(c2cccc4cccc(Cl)c24)C3)C[C@H]1C`, under setting [2], the IC50 is above 500 nM.

As for `O=C(/C=C/CN1[C@@H]2CC[C@H]1COC2)N1CCN(c2nc(OC[C@@]34CCCN3C[C@H](F)C4)nc3c(F)c(-c4cccc5cccc(Cl)c45)ncc23)CC12CC2`, the IC50 under setting [2] is above 500 nM.

With `COC/C=C/C(=O)N1CC[C@@H](N(C)c2nc(OCC34CCCN3CCC4)nc3c(F)c(-c4cccc5cccc(Cl)c45)ncc23)C1`, under setting [2], the IC50 lay in the range of 10 to 100 nM.

With `C=CC(=O)N1CC[C@@H](N(C)c2nc(OCC34CCCN3CCC4)nc3c2CCN(c2cccc4cccc(Cl)c24)C3)C1` [Example 19, (R)-1-(3-((7-(8-chloronaphthalen-1-yl)-2-((tetrahydro-1H-pyrrolizin-7a(5H)-yl)methoxy)-5,6,7,8-tetrahydropyrido[3,4-d]pyrimidin-4-yl)(methyl)amino)pyrrolidin-1-yl)prop-2-en-1-one], the IC50 under setting [1] was in the range of 10 to 100 nM.

With `COCCN1CC[C@@H]1/C=C/C(=O)N1CC[C@@H](N(C)c2nc(OC[C@@]34CCCN3C[C@H](F)C4)nc3c(F)c(-c4cccc5cccc(Cl)c45)ncc23)C1` [Example 234, (E)-1-((R)-3-((7-(8-chloronaphthalen-1-yl)-8-fluoro-2-(((2R,7aS)-2-fluorotetrahydro-1H-pyrrolizin-7a(5H)-yl)methoxy)pyrido[4,3-d]pyrimidin-4-yl)(methyl)amino)pyrrolidin-1-yl)-3-((R)-1-(2-methoxyethyl)azetidin-2-yl)prop-2-en-1-one], the IC50 under setting [1] lay in the range of 10 to 100 nM.

With `Cc1nccc(/C=C/C(=O)N2CC(CN(C)c3nc(OC[C@@]45CCCN4C[C@H](F)C5)nc4c(F)c(-c5cccc6ccc(F)c(Cl)c56)ncc34)C2)n1` [Example 68, (E)-1-(3-(((7-(8-chloro-7-fluoronaphthalen-1-yl)-8-fluoro-2-(((2R,7aS)-2-fluorotetrahydro-1H-pyrrolizin-7a(5H)-yl)methoxy)pyrido[4,3-d]pyrimidin-4-yl)(methyl)amino)methyl)azetidin-1-yl)-3-(2-methylpyrimidin-4-yl)prop-2-en-1-one], the IC50 under setting [1] lay within 10 to 100 nM.

For the molecule `C#Cc1c(F)ccc2cccc(-c3ncc4c(N(C)[C@@H]5CCN(C(=O)/C=C/c6ccccn6)C5)nc(OC[C@@]56CCCN5C[C@H](F)C6)nc4c3F)c12`, the IC50 under setting [2] is above 500 nM.

With `Cc1nccc(/C=C/C(=O)N2CC(CN(C)c3nc(OC[C@@]45CCCN4C[C@H](F)C5)nc4c(F)c(-c5cccc6cccc(Cl)c56)ncc34)C2)n1` [Example 62, (E)-1-(3-(((7-(8-chloronaphthalen-1-yl)-8-fluoro-2-(((2R,7aS)-2-fluorotetrahydro-1H-pyrrolizin-7a(5H)-yl)methoxy)pyrido[4,3-d]pyrimidin-4-yl)(methyl)amino)methyl)azetidin-1-yl)-3-(2-methylpyrimidin-4-yl)prop-2-en-1-one], the IC50 under setting [1] lay within 10 to 100 nM.

Turning to `CN(c1nc(OC[C@@]23CCCN2C[C@H](F)C3)nc2c(F)c(-c3cccc4cccc(Cl)c34)ncc12)[C@H]1CN(C(=O)/C=C/c2nc(C(C)(C)O)no2)C[C@@H]1F` [Example 56, (E)-1-((3S,4S)-3-((7-(8-chloronaphthalen-1-yl)-8-fluoro-2-(((2R,7aS)-2-fluorohexahydro-1H-pyrrolizin-7a-yl)methoxy)pyrido[4,3-d]pyrimidin-4-yl)(methyl)amino)-4-fluoropyrrolidin-1-yl)-3-(3-(2-hydroxypropan-2-yl)-1,2,4-oxadiazol-5-yl)prop-2-en-1-one], under setting [1], the IC50 is 10 to 100 nM.

Turning to `C=CC(=O)N1C[C@H](F)[C@@H](N(C)c2nc(OCC34CCCN3CCC4)nc3c(F)c(-c4cccc5ccc(F)c(Cl)c45)ncc23)C1` [Example 237, 1-((3S,4S)-3-((7-(8-chloro-7-fluoronaphthalen-1-yl)-8-fluoro-2-((tetrahydro-1H-pyrrolizin-7a(5H)-yl)methoxy)pyrido[4,3-d]pyrimidin-4-yl)(methyl)amino)-4-fluoropyrrolidin-1-yl)prop-2-en-1-one], the IC50 under setting [1] lay in the range of 10 to 100 nM.

In the case of `Cc1nccc(/C=C/C(=O)N2C[C@H]3CC[C@@H](C2)N3c2nc(OC[C@@]34CCCN3C[C@H](F)C4)nc3c(F)c(-c4cccc5cccc(Cl)c45)ncc23)n1`, under setting [2], the half-inhibitory concentration (IC50) is above 500 nM.

As for `C=CC(=O)C1[C@H]2CCN(c3nc(OC[C@@H]4CCCN4C)nc4c3CCN(c3cccc5cccc(Cl)c35)C4)C[C@@H]12` (stereo in doubt) [Example 43], the IC50 under setting [1] is 10 to 100 nM.

For the molecule `CN1CCC[C@H]1COc1nc2c(c(N3CCC(CNC#N)CC3)n1)CCN(c1cccc3cccc(Cl)c13)C2` [Example 32, (S)-N-((1-(7-(8-chloronaphthalen-1-yl)-2-((1-methylpyrrolidin-2-yl)methoxy)-5,6,7,8-tetrahydropyrido[3,4-d]pyrimidin-4-yl)piperidin-4-yl)methyl)cyanamide], the IC50 under setting [1] was above 500 nM.

On to `CN(CC1(C)CN(C#N)C1)c1nc(OC[C@@H]2CCCN2C)nc2c1CCN(c1cccc3cccc(Cl)c13)C2`, for which the IC50 under setting [2] was above 500 nM.

In the case of `CC(C)OC(=O)/C=C/C(=O)N1CC[C@@H](N(C)c2nc(OC[C@@H]3CCCN3C)nc3c2CCN(c2cccc4cccc(Cl)c24)C3)C1` [Example 11, isopropyl(E)-4-((R)-3-((7-(8-chloronaphthalen-1-yl)-2-(((S)-1-methylpyrrolidin-2-yl)methoxy)-5,6,7,8-tetrahydropyrido[3,4-d]pyrimidin-4-yl)(methyl)amino)pyrrolidin-1-yl)-4-oxobut-2-enoate], the IC50 under setting [1] fell in the range of 10 to 100 nM.

In the case of `C#Cc1c(F)ccc2cccc(-c3ncc4c(N(C)[C@H]5CCN(C(=O)C=C)C5)nc(OC[C@@]56CCCN5C[C@H](F)C6)nc4c3F)c12`, the concentration for half-maximal inhibition (IC50) under setting [2] fell in the range of 100 to 500 nM.

For the molecule `C=CS(=O)(=O)CCN(C)c1nc(OC[C@@H]2CCCN2C)nc2c1CCN(c1cccc3cccc(Cl)c13)C2` [Example 47, (S)-7-(8-chloronaphthalen-1-yl)-N-methyl-2-((1-methylpyrrolidin-2-yl)methoxy)-N-(2-(vinylsulfonyl)ethyl)-5,6,7,8-tetrahydropyrido[3,4-d]pyrimidin-4-amine], the IC50 under setting [1] was 10 to 100 nM.

For `CN(c1nc(OCC23CCCN2CCC3)nc2c1CCN(c1cccc3ccc(F)c(Cl)c13)C2)[C@@H]1CCN(C#N)C1`, the IC50 under setting [2] lay in the range of 10 to 100 nM.

For the molecule `CN(C)C/C=C/S(=O)(=O)CCN(C)c1nc(OC[C@@H]2CCCN2C)nc2c(F)c(-c3cccc4ccc(F)c(Cl)c34)ncc12`, under setting [2], the IC50 lay within 10 to 100 nM.

As to `C=CC(=O)N1CC[C@@H](N(C)c2nc(OC[C@@]34CCCN3C[C@H](F)C4)nc3c(F)c(-c4cc(OC(F)F)cc5ccccc45)ncc23)C1`, the IC50 under setting [2] is above 500 nM.

For the origin of these results see US20250019387A1 (Frontier Medicines Corporation, priority 0001, published 2025).
